How the values were obtained:
[1] = Partition coefficient (log D), n-Octanol/PBS; type: physicochemical
Protocol: The vials were vortexed for 5 min at 1,500 rpm and then centrifuged for 5 min at 20,000 rcf (Eppendorf Centrifuge 5424).

human serum = test: Protein binding in fresh human serum (Sephadex MicroSpin G-50 columns); type: in vitro ADME; conditions: 37° C., 30 min
Protocol: Protein binding was determined for different time points (2 min, 30 min, 60 min, 120 min) in triplicates using Sephadex MicroSpin G-50 columns (GE-Healthcare, Chicago, Illinois, USA). The columns were spun initially at 20,000 rcf for 1 min to remove the storage buffer. Then approx. 5 MBq of radioligand was added to 1 mL of fresh human serum and incubated at 37° C. At each given timepoint 25 μL of the mixture was loaded on to the column, which was then spun at 20,000 rcf for 1 min. The activity content on the column (free radioligand) and in the filtrate (protein bound fraction) was quantified in a γ-counter.

[2] = Ligand stability in human blood serum (radio-HPLC); type: in vitro ADME; conditions: 37° C., 120 min
Protocol: Ligand stability in human blood serum (n=2) and PBS (n=1) was determined for different time points (2 min, 30 min, 60 min, 120 min). Therefore, approx. 5 MBq of radioligand was added to 1 mL of fresh human serum or PBS and incubated at 37° C. At each given time point 100 μL of the mixture were transferred to a 1.5 mL Eppendorf tube containing 100 μL of acetonitrile. The vial was vortexed and centrifuged for 2 min at 14,000 rpm before 100 μL of the supernatant were diluted with 200 μL of water and injected into analytical radio-HPLC. The PBS solution was directly injected into the radio-HPLC. Ligand stability was determined by integrating the areas of the signals in the radio chromatogram in relation to the signal of the intact ligand.

[3] = Biodistribution studies incl. blocking experiments; type: in vivo; conditions: healthy BALB/c mice
Protocol: For biodistribution studies 6 week old female BALB/c mice (n=3) were injected with 0.1 nmol (100 μL, approx. 1 MBq) of labelled compound via the lateral tail vein and sacrificed after 10, 30, or 60 min by cervical dislocation. The mice were dissected, blood and organs (spleen, pancreas, stomach, intestine, liver, kidney, heart, lung, muscle, and bone) were weighed, and their activity measured in a γ-counter. For blocking experiments, mice were co-injected with 100 μL of a 277 mM Galactose/PBS solution. In case of [^68Ga]Ga-TRAP-GalNAc a 277 mM N-Acetylgalactose solution was used.

[4] = 30 min p.i., blocking with 277 mM N-Acetylgalactose

CC(=O)N[C@H]1[C@H](OCCOCCOCCn2cc(CNC(=O)CCP(=O)([O-])CN3CCN(CP(=O)([O-])CCC(=O)NCc4cn(CCOCCOCCO[C@@H]5O[C@H](CO)[C@H](O)[C@H](O)[C@H]5NC(C)=O)nn4)CCN(CP(=O)([O-])CCC(=O)NCc4cn(CCOCCOCCO[C@@H]5O[C@H](CO)[C@H](O)[C@H](O)[C@H]5NC(C)=O)nn4)CC3)nn2)O[C@H](CO)[C@H](O)[C@@H]1O.[68Ga+3] [[^68Ga]Ga-TRAP-GalNAc]
logD [1]: −4.2±0.08
Protein binding (%) (human serum): 24.3 ± 5.2%
Serum stability (% of intact ligand) [2]: high serum stability
Serum stability (% of intact ligand) ([2]; listed as [^68Ga]Ga-TRAP-GalNAC): 99.7 ± 0.1%
Liver uptake compared with [^99mTc]Tc-GSA [3]: comparable
Biodistribution Blood ([3]; 10 min p.i.): 0.64 ± 0.04 % ID/g
Biodistribution Femur ([3]; 10 min p.i.): 0.27 ± 0.04 % ID/g
Biodistribution Heart ([3]; 10 min p.i.): 0.69 ± 0.12 % ID/g
Biodistribution Intestine ([3]; 10 min p.i.): 0.63 ± 0.06 % ID/g
Biodistribution Kidneys ([3]; 10 min p.i.): 1.43 ± 0.10 % ID/g
Biodistribution Liver ([3]; 10 min p.i.): 69.1 ± 4.18 % ID/g
Biodistribution Lung ([3]; 10 min p.i.): 0.92 ± 0.11 % ID/g
Biodistribution Muscle ([3]; 10 min p.i.): 0.55 ± 0.03 % ID/g
Biodistribution Pancreas ([3]; 10 min p.i.): 0.92 ± 0.17 % ID/g
Biodistribution Spleen ([3]; 10 min p.i.): 0.24 ± 0.05 % ID/g
Biodistribution Stomach ([3]; 10 min p.i.): 0.86 ± 0.15 % ID/g
Biodistribution Blood ([3]; 30 min p.i.): 0.57 ± 0.09 % ID/g
Biodistribution Femur ([3]; 30 min p.i.): 0.47 ± 0.12 % ID/g
Biodistribution Heart ([3]; 30 min p.i.): 0.73 ± 0.02 % ID/g
Biodistribution Intestine ([3]; 30 min p.i.): 4.16 ± 0.35 % ID/g
Biodistribution Kidneys ([3]; 30 min p.i.): 1.68 ± 0.30 % ID/g
Biodistribution Liver ([3]; 30 min p.i.): 63.88 ± 2.23 % ID/g
Biodistribution Lung ([3]; 30 min p.i.): 1.02 ± 0.06 % ID/g
Biodistribution Muscle ([3]; 30 min p.i.): 0.74 ± 0.08 % ID/g
Biodistribution Pancreas ([3]; 30 min p.i.): 1.50 ± 0.49 % ID/g
Biodistribution Spleen ([3]; 30 min p.i.): 0.20 ± 0.02 % ID/g
Biodistribution Stomach ([3]; 30 min p.i.): 1.60 ± 0.56 % ID/g
Biodistribution Blood [3, 4]: 0.80 ± 0.04 % ID/g
Biodistribution Femur [3, 4]: 0.32 ± 0.12 % ID/g
Biodistribution Heart [3, 4]: 0.31 ± 0.02 % ID/g
Biodistribution Intestine [3, 4]: 0.71 ± 0.06 % ID/g
Biodistribution Kidneys [3, 4]: 2.86 ± 0.21 % ID/g
Biodistribution Liver [3, 4]: 10.98 ± 0.44 % ID/g
Biodistribution Lung [3, 4]: 0.73 ± 0.02 % ID/g
Biodistribution Muscle [3, 4]: 0.28 ± 0.05 % ID/g
Biodistribution Pancreas [3, 4]: 0.39 ± 0.04 % ID/g
Biodistribution Spleen [3, 4]: 0.24 ± 0.01 % ID/g
Biodistribution Stomach [3, 4]: 0.53 ± 0.06 % ID/g
Biodistribution Blood ([3]; 60 min p.i.): 0.23 ± 0.02 % ID/g
Biodistribution Femur ([3]; 60 min p.i.): 0.49 ± 0.11 % ID/g
Biodistribution Heart ([3]; 60 min p.i.): 0.82 ± 0.27 % ID/g
Biodistribution Intestine ([3]; 60 min p.i.): 4.53 ± 0.35 % ID/g
Biodistribution Kidneys ([3]; 60 min p.i.): 0.79 ± 0.07 % ID/g
Biodistribution Liver ([3]; 60 min p.i.): 54.20 ± 7.95 % ID/g
Biodistribution Lung ([3]; 60 min p.i.): 0.71 ± 0.10 % ID/g
Biodistribution Muscle ([3]; 60 min p.i.): 0.57 ± 0.01 % ID/g
Biodistribution Pancreas ([3]; 60 min p.i.): 0.76 ± 0.11 % ID/g
Biodistribution Spleen ([3]; 60 min p.i.): 0.17 ± 0.05 % ID/g
Biodistribution Stomach ([3]; 60 min p.i.): 0.54 ± 0.02 % ID/g

O=C(CCP(=O)([O-])CN1CCN(CP(=O)([O-])CCC(=O)NCc2cn(CCOCCOCCO[C@@H]3O[C@H](CO)[C@@H](O)[C@H](O)[C@H]3O)nn2)CCN(CP(=O)([O-])CCC(=O)NCc2cn(CCOCCOCCO[C@@H]3O[C@H](CO)[C@@H](O)[C@H](O)[C@H]3O)nn2)CC1)NCc1cn(CCOCCOCCO[C@@H]2O[C@H](CO)[C@@H](O)[C@H](O)[C@H]2O)nn1.[68Ga+3] [[^68Ga]Ga-TRAP-Gluco, reference compound]
logD [1]: −3.8 ± 0.08
Protein binding (%) (human serum): 3.3 ± 2.0%
Biodistribution Blood ([3]; 10 min p.i.): 4.53 ± 0.52 % ID/g
Biodistribution Femur ([3]; 10 min p.i.): 0.86 ± 0.10 % ID/g
Biodistribution Intestine ([3]; 10 min p.i.): 1.10 ± 0.12 % ID/g
Biodistribution Kidneys ([3]; 10 min p.i.): 10.20 ± 1.23 % ID/g
Biodistribution Liver ([3]; 10 min p.i.): 1.06 ± 0.07 % ID/g
Biodistribution Lung ([3]; 10 min p.i.): 2.84 ± 0.13 % ID/g
Biodistribution Muscle ([3]; 10 min p.i.): 0.99 ± 0.10 % ID/g
Biodistribution Pancreas ([3]; 10 min p.i.): 1.03 ± 0.08 % ID/g
Biodistribution Spleen ([3]; 10 min p.i.): 0.94 ± 0.03 % ID/g
Biodistribution Stomach ([3]; 10 min p.i.): 1.59 ± 0.44 % ID/g
Biodistribution Blood ([3]; 30 min p.i.): 1.40 ± 0.50 % ID/g
Biodistribution Femur ([3]; 30 min p.i.): 0.15 ± 0.14 % ID/g
Biodistribution Heart ([3]; 30 min p.i.): 1.07 ± 0.34 % ID/g
Biodistribution Intestine ([3]; 30 min p.i.): 0.57 ± 0.20 % ID/g
Biodistribution Kidneys ([3]; 30 min p.i.): 3.95 ± 1.12 % ID/g
Biodistribution Liver ([3]; 30 min p.i.): 0.51 ± 0.17 % ID/g
Biodistribution Lung ([3]; 30 min p.i.): 0.32 ± 0.10 % ID/g
Biodistribution Muscle ([3]; 30 min p.i.): 0.35 ± 0.12 % ID/g
Biodistribution Pancreas ([3]; 30 min p.i.): 0.47 ± 0.18 % ID/g
Biodistribution Spleen ([3]; 30 min p.i.): 0.41 ± 0.13 % ID/g
Biodistribution Stomach ([3]; 30 min p.i.): 0.61 ± 0.19 % ID/g
Biodistribution Blood ([3]; 60 min p.i.): 0.16 ± 0.06 % ID/g
Biodistribution Femur ([3]; 60 min p.i.): 0.08 ± 0.03 % ID/g
Biodistribution Heart ([3]; 60 min p.i.): 0.08 ± 0.02 % ID/g
Biodistribution Intestine ([3]; 60 min p.i.): 0.14 ± 0.05 % ID/g
Biodistribution Kidneys ([3]; 60 min p.i.): 1.87 ± 0.33 % ID/g
Biodistribution Liver ([3]; 60 min p.i.): 0.15 ± 0.02 % ID/g
Biodistribution Lung ([3]; 60 min p.i.): 0.31 ± 0.03 % ID/g
Biodistribution Muscle ([3]; 60 min p.i.): 0.05 ± 0.01 % ID/g
Biodistribution Pancreas ([3]; 60 min p.i.): 0.09 ± 0.03 % ID/g
Biodistribution Spleen ([3]; 60 min p.i.): 0.11 ± 0.01 % ID/g
Biodistribution Stomach ([3]; 60 min p.i.): 0.09 ± 0.03 % ID/g
